# Source: EP4682145A1, “BENZOHETEROCYCLIC COMPOUND, AND PREPARATION METHOD THEREFOR AND USE THEREOF” (Cascade Pharmaceuticals, Inc., priority 2023, dated 2024)
# Target: T1, human FFAR1 (GPR40) (Homo sapiens, UniProt O14842)
# T1 construct: Flag; expressed in transfected cells; host or cells: HEK293T
# Experiment: NFAT-RE-based reporter gene activity assay (Dual-Glo luciferase) for GPR40 agonistic activity in co-transfected HEK293T cells
# Type: cell-based
# Settings: 4-hour treatment; for Efficacy (%): class symbols
# Procedure, shortened: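 HEK293T cells co-transfected with human FFAR1, NFAT-RE firefly luciferase and TK-Renilla plasmids; 24 h later treated 4 h with 10 half-log compound dilutions from 1 µM. Firefly/Renilla ratio normalised to DMSO; EC50 from four-parameter fit.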
# T1 sequence (O14842 whole entry): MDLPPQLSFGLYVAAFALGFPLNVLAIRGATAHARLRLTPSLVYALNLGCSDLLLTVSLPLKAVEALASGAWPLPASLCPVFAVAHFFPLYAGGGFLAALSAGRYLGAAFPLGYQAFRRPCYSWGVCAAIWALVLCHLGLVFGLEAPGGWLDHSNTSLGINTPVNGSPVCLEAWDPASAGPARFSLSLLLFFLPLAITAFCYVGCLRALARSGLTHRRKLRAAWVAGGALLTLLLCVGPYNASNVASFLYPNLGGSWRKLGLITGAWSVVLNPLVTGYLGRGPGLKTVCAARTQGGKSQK
SMILES,EC50 [nM],Efficacy (%)
COc1cccc(N2CCC(c3oc4cc([C@@H](CC(=O)O)C5CC5)ccc4c3COC(=O)C(C)(C)C)CC2)c1 [Compound 398],100 to 500,††† (Efficacy (%) > 150)
COc1cccc(N2CCC(c3oc4cc([C@@H](CC(=O)O)C5CC5)ccc4c3C3OCC(C)(C)CO3)CC2)c1 [Compound 399],100 to 500,†† (150 ≥ Efficacy (%) > 100)
COc1cccc(N2CCC(c3oc4cc(C(CC(=O)O)C5CC5)ccc4c3C3O[C@@H](C)[C@H](C)O3)CC2)c1 (stereo partly shown) [Compound 400],100 to 500,† (100 ≥ Efficacy (%) > 50)
COc1cccc(N2CCC(c3oc4cc([C@@H](CC(=O)O)C5CC5)ccc4c3COc3ccccc3)CC2)c1 [Compound 404],100 to 500,†† (150 ≥ Efficacy (%) > 100)
COc1cccc(N2CCC(c3oc4cc([C@@H](CC(=O)O)C5CC5)ccc4c3C(C)OC)CC2)c1 (stereo partly shown) [Compound 406],100 to 500,††† (Efficacy (%) > 150)
CCOC(C)c1c(C2CCN(c3cccc(OC)c3)CC2)oc2cc([C@@H](CC(=O)O)C3CC3)ccc12 (stereo partly shown) [Compound 407],100 to 500,††† (Efficacy (%) > 150)
CCCOC(C)c1c(C2CCN(c3cccc(OC)c3)CC2)oc2cc([C@@H](CC(=O)O)C3CC3)ccc12 (stereo partly shown) [Compound 408],100 to 500,††† (Efficacy (%) > 150)
COc1cccc(N2CCC(c3oc4cc([C@@H](CC(=O)O)C5CC5)ccc4c3C(C)OCC(C)C)CC2)c1 (stereo partly shown) [Compound 409],10 to 100,††† (Efficacy (%) > 150)
CCCCOC(C)c1c(C2CCN(c3cccc(OC)c3)CC2)oc2cc([C@@H](CC(=O)O)C3CC3)ccc12 (stereo partly shown) [Compound 410],100 to 500,††† (Efficacy (%) > 150)
COc1cccc(N2CCC(c3oc4cc([C@@H](CC(=O)O)C5CC5)ccc4c3C(C)OCC(C)(C)C)CC2)c1 (stereo partly shown) [Compound 411],10 to 100,†† (150 ≥ Efficacy (%) > 100)
COc1cccc(N2CCC(c3oc4cc([C@@H](CC(=O)O)C5CC5)ccc4c3C(C)OCCC(C)(C)C)CC2)c1 (stereo partly shown) [Compound 412],100 to 500,††† (Efficacy (%) > 150)
CCC(C)COC(C)c1c(C2CCN(c3cccc(OC)c3)CC2)oc2cc([C@@H](CC(=O)O)C3CC3)ccc12 (stereo partly shown) [Compound 413],100 to 500,††† (Efficacy (%) > 150)
COc1cccc(N2CCC(c3oc4cc([C@@H](CC(=O)O)C5CC5)ccc4c3C(C)OCC[C@@H](C)CCCC(C)C)CC2)c1 (stereo partly shown) [Compound 414],> 500,††† (Efficacy (%) > 150)
COc1cccc(N2CCC(c3oc4cc([C@@H](CC(=O)O)C5CC5)ccc4c3C(C)OCC[C@@H](C)CCC=C(C)C)CC2)c1 (stereo partly shown) [Compound 415],> 500,††† (Efficacy (%) > 150)
CCC(OCC(C)(C)C)c1c(C2CCN(c3cccc(OC)c3)CC2)oc2cc([C@@H](CC(=O)O)C3CC3)ccc12 (stereo partly shown) [Compound 416],10 to 100,†† (150 ≥ Efficacy (%) > 100)
COc1cccc(N2CCC(c3oc4cc([C@@H](CC(=O)O)C5CC5)ccc4c3C(C)OCC3CC3)CC2)c1 (stereo partly shown) [Compound 417],100 to 500,††† (Efficacy (%) > 150)
COc1cccc(N2CCC(c3oc4cc([C@@H](CC(=O)O)C5CC5)ccc4c3C(C)OCC3CCC3)CC2)c1 (stereo partly shown) [Compound 418],10 to 100,††† (Efficacy (%) > 150)
COc1cccc(N2CCC(c3oc4cc([C@@H](CC(=O)O)C5CC5)ccc4c3C(C)OCC3CCCC3)CC2)c1 (stereo partly shown) [Compound 419],10 to 100,††††
COc1cccc(N2CCC(c3oc4cc([C@@H](CC(=O)O)C5CC5)ccc4c3C(C)OCc3ccco3)CC2)c1 (stereo partly shown) [Compound 420],100 to 500,†† (150 ≥ Efficacy (%) > 100)
COc1cccc(N2CCC(c3oc4cc([C@@H](CC(=O)O)C5CC5)ccc4c3C(C)OCc3cccs3)CC2)c1 (stereo partly shown) [Compound 421],100 to 500,††† (Efficacy (%) > 150)
